In ChEMBL document CHEMBL3879912, “4-alkoxy/aralkoxy-5-substituted-pyrrolopyrimidine compounds as TAK1 inhibitors in disease treatment” (2014):
pIC50: −log10 of the molar value.

Molecular target: TAK1/TAB1 (Homo sapiens, UniProt O43318)
Assay: Inhibition of kinase tracer-236 binding to full length recombinant human His-tagged TAK1-TAB1 expressed in baculovirus by FRET assay

Sequence of TAK1/TAB1 (Q15750 whole entry): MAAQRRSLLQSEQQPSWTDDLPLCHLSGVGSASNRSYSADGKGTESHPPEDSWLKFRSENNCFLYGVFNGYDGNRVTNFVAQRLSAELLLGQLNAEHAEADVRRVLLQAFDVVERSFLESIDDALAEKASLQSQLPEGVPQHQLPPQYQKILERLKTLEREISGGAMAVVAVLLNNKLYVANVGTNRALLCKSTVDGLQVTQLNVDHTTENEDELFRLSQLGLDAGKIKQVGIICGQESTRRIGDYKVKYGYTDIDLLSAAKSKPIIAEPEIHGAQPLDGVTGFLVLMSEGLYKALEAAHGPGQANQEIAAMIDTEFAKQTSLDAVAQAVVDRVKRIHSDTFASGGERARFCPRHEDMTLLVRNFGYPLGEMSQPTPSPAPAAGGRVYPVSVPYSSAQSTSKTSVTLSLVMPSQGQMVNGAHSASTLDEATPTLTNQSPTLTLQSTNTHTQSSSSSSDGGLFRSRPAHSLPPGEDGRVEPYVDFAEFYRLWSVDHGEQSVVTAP
Sequence of TAK1/TAB1 (O43318 whole entry): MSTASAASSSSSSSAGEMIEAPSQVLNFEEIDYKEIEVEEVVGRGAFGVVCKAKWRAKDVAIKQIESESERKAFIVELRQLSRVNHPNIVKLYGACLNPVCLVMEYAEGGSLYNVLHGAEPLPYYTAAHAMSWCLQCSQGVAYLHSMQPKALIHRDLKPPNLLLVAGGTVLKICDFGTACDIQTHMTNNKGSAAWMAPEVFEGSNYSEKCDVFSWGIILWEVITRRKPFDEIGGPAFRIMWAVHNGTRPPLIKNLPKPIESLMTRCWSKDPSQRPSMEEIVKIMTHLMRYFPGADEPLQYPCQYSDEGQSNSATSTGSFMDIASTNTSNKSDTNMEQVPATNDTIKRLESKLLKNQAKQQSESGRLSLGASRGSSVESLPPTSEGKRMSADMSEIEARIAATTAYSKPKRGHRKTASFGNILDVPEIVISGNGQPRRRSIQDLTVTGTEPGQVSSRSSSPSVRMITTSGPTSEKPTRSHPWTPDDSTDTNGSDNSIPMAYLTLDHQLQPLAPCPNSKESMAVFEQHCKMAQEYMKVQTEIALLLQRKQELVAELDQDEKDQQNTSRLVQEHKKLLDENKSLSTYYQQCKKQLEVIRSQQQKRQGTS

SMILES | pIC50
COC(=O)/C(C)=C/c1c[nH]c2ncnc(OCC(C)C)c12 | 6.37
CC(=O)c1c[nH]c2ncnc(OCC(C)C)c12 | 5.77

Now those with a higher pIC50, led by results:

pIC50 | SMILES
8.15 | CC(C)COc1ncnc2[nH]cc(C#CC(N)=O)c12
6.48 | N#C/C=C/c1c[nH]c2ncnc(OCc3ccccc3)c12
7.29 | NC(=O)/C=C/c1c[nH]c2ncnc(OCc3cccc(F)c3)c12
